Experimental data reported in US4016042A, “Substrate for the quantitative determination of enzymes” (Pentapharm A.G., priority 1974, dated 1977).
Counter-ions that a name gives are not always drawn. Non-standard residues stand in square brackets, D forms with d. Residues, ends and D or L forms follow the SMILES beside them. *: point of attachment. Cha = N[C@@H](CC1CCCCC1)C(=O)O; pNA = O=[N+]([O-])c1ccc(N*)cc1; Phg = N[C@H](C(=O)O)c1ccccc1; Tos = Cc1ccc(S(=O)(=O)*)cc1; 4Abz = Nc1ccc(C(=O)O)cc1; βNA = c1ccc2cc(N*)ccc2c1; Cbz = O=C(OCc1ccccc1)*; Bz = O=C(c1ccccc1)*; Ahx = NCCCCCC(=O)O

Key:
Format in all cases: biochemical
plasmin = plasmin (Homo sapiens, UniProt P00747); assay: Activity of human plasmin measured with the substrates at constant substrate and enzyme concentrations; conditions: split product
plasmin, sequence (P00747 581-810 limits assumed): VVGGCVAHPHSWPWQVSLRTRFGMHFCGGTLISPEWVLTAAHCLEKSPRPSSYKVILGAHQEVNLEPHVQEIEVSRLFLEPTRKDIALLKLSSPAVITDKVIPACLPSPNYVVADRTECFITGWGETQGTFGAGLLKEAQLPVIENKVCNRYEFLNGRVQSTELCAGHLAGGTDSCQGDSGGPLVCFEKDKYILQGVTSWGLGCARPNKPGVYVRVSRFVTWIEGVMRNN
plasmin, sequence (P00747 97-580 partner limits assumed): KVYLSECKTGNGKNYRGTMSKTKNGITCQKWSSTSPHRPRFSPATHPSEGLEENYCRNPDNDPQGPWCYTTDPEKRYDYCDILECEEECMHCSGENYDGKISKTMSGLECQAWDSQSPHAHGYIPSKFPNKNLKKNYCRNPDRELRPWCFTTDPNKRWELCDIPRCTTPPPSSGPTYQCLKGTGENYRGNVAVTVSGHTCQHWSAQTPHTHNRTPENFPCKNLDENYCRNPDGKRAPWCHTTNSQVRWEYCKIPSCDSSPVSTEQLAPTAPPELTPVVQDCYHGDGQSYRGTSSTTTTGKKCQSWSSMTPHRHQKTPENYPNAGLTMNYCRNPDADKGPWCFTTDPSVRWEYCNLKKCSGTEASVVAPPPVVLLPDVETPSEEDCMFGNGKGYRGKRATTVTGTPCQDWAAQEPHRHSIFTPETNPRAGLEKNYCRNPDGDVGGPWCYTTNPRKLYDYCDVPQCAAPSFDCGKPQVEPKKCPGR
Description: (§1) HCl, were used for the quantitative determination of various enzymes in blood plasma. The determination was carried out by taking advantage of the fact that the split product NH2 -R^2 formed by enzymatic hydrolysis of the substrate has a UV spectrum which differs from that of the substrate and is shifted toward higher wave lengths. Thus, N^α-Bz-Pro-Phe-Arg-pNA^.
(§2) The degree of the enzymatic hydrolysis of the substrate, which is proportional to the quantity of p-nitroaniline formed, can be easily determined by spectrophotometric measurement at 405 nm. […] The conditions are practically the same for the other substrates carrying a p-nitroanilino group as a chromogenic group. The spectrophotometric measurement was, therefore, carried out in all cases at 405 nm.

plasma kallikrein = plasma kallikrein (Homo sapiens, UniProt P03952); assay: Activity of plasma kallikrein measured with the substrates at constant substrate and enzyme concentrations; conditions: split product
plasma kallikrein, sequence (P03952 391-638 limits assumed, species assumed): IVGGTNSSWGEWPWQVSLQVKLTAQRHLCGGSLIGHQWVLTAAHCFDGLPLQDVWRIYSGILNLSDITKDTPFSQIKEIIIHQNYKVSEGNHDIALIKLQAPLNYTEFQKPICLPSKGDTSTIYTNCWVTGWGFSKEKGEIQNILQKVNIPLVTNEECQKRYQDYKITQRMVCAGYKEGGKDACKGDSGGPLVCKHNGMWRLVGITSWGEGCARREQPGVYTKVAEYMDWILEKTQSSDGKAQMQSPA
plasma kallikrein, sequence (P03952 20-390 partner limits assumed, species assumed): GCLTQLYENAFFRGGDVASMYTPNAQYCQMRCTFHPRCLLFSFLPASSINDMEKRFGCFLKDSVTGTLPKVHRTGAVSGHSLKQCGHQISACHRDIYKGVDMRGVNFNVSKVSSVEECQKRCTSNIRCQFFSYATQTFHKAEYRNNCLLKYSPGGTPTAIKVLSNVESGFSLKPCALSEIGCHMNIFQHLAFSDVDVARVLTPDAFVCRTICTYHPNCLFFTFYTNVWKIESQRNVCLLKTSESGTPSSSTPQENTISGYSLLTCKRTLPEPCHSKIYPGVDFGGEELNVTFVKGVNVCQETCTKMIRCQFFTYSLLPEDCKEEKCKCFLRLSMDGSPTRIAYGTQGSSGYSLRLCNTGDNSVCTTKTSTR
Description: as §1, §2

trypsin = target: T1, trypsin (Bos taurus, UniProt P00760); assay: Splitting by trypsin with liberation of pNA
T1 sequence (P00760 24-246): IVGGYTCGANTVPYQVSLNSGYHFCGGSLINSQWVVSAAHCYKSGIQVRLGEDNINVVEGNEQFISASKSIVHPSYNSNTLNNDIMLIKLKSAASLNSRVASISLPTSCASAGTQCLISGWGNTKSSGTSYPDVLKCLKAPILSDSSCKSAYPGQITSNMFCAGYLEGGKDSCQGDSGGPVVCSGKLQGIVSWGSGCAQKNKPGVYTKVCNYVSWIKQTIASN
Description: In a 250 ml three-necked flask 16.0 g (47 mmoles) of Cbo-Arg-OH.HCl, dried over P2 O5 in vacuo, were dissolved in 90 ml of absolute HMPTA in a moisture-free atmosphere at 20° C. To the resulting solution there was first added portionwise a solution of 4.74 g (47 mmoles) of Et3 N in 10 ml of HMPTA and then 16.4 g (100 mmoles) of p-nitrophenylisocyanate (100% excess) at room temperature. The reaction mixture was kept at room temperature for 24 hours, whereupon most of the HMPTA was distilled off in vacuo. The residue was extracted several times with 30% AcOH. The residue was discarded. The combined AcOH extracts were further purified by gel filtration on a "Sephadex G-15" column as described in Example 1, paragraph I (e). […] Elementary analysis and calculation from the empirical formula C20 H25 N6 O5 Cl gave the following values: C = 51.29% (51.67%); H = 5.48% (5.42%); N = 17.92% (18.08%); Cl = 7.50% (7.63%).

splitting by trypsin (trypsin) | Molecule | Quantity of p-nitroaniline (pNA), β-naphthylamine (2-NA) or 4-methoxy-β-naphthylamine (4-MeO-2-NA) released within 1 minute by one C unit of human plasmin (plasmin) [nm] | Quantity of p-nitroaniline (pNA), β-naphthylamine (2-NA) or 4-methoxy-β-naphthylamine (4-MeO-2-NA) released within 1 minute by 1 BAEE unit of plasma kallikrein (plasma kallikrein) [nm]
 | N=C(N)NCCC[C@H](NC(=O)[C@H](Cc1ccccc1)NC(=O)[C@@H]1CCCN1)C(=O)Nc1ccc([N+](=O)[O-])cc1 [Substrate II, H-Pro-Phe-Arg-pNA.2HCl] (H-Pro-Phe-Arg-pNA) | 16.2 | 28.6
 | CC(=O)N1CCC[C@H]1C(=O)N[C@@H](Cc1ccccc1)C(=O)N[C@@H](CCCNC(=N)N)C(=O)Nc1ccc([N+](=O)[O-])cc1 [Substrate III, N^α -Ac-Pro-Phe-Arg-pNA.HCl] (Ac-Pro-Phe-Arg-pNA) | 49.1 | 42.3
 | N=C(N)NCCC[C@H](NC(=O)[C@H](Cc1ccccc1)NC(=O)[C@@H]1CCCN1C(=O)C1CCCCC1)C(=O)Nc1ccc([N+](=O)[O-])cc1 [Substrate V, N^α -cyclohexylcarbonyl-Pro-Phe-Arg-pNA.HCl] | 158.0 | 154.7
 | Cc1ccc(C(=O)N2CCC[C@H]2C(=O)N[C@@H](Cc2ccccc2)C(=O)N[C@@H](CCCNC(=N)N)C(=O)Nc2ccc([N+](=O)[O-])cc2)cc1 [Substrate VI, N^α -4-Methyl-Bz-Pro-Phe-Arg-pNA.HCl] | 142.0 | 78.4
 | N=C(N)NCCC[C@H](NC(=O)[C@H](Cc1ccccc1)NC(=O)[C@@H]1CCCN1C(=O)CCCCCN)C(=O)Nc1ccc([N+](=O)[O-])cc1 [Substrate VIII, N^α -(ω-Aminocaproyl)-Pro-Phe-Arg-pNA.2HCl] (H-[Ahx]PFR-pNA) | 256.0 | 59.7
 | Cc1ccc(S(=O)(=O)N2CCC[C@H]2C(=O)N[C@@H](Cc2ccccc2)C(=O)N[C@@H](CCCNC(=N)N)C(=O)Nc2ccc([N+](=O)[O-])cc2)cc1 [Substrate X, N^α-Tos-Pro-Phe-Arg-pNA.HCl] (Tos-Pro-Phe-Arg-pNA) | 80.2 | 88.5
 | N=C(N)NCCC[C@H](NC(=O)[C@H](Cc1ccccc1)NC(=O)[C@@H]1CCCN1C(=O)Cc1ccc(N)cc1)C(=O)Nc1ccc([N+](=O)[O-])cc1 [Substrate XI, N^α-4-Aminophenyl-acetyl-Pro-Phe-Arg-pNA. 2HCl] | 230.0 | 72.1
 | N=C(N)NCCC[C@H](NC(=O)[C@H](Cc1ccccc1)NC(=O)[C@@H]1CCCN1C(=O)c1ccc(N)cc1)C(=O)Nc1ccc([N+](=O)[O-])cc1 [Substrate XII, N^α-4-Aminobenzoyl-Pro-Phe-Arg-pNA. 2HCl] (H-[4Abz]PFR-pNA) | 196.0 | 49.2
 | N=C(N)NCCC[C@H](NC(=O)[C@H](Cc1ccccc1)NC(=O)[C@@H]1CCCN1C(=O)OCc1ccccc1)C(=O)Nc1ccc([N+](=O)[O-])cc1 [Substrate XIII, N^α-Cbo-Pro-Phe-Arg-pNA.HCl] (Cbz-Pro-Phe-Arg-pNA) | 176.1 | 109.9
 | N=C(N)NCCC[C@H](NC(=O)[C@H](CC1CCCCC1)NC(=O)[C@@H]1CCCN1C(=O)c1ccccc1)C(=O)Nc1ccc([N+](=O)[O-])cc1 [Substrate XIV, N^α-Bz-Pro-CHA-Arg-pNA.HCl] (Bz-Pro-[Cha]-Arg-pNA) | 116.0 | 64.5
 | N=C(N)NCCC[C@H](NC(=O)[C@H](Cc1ccc(O)cc1)NC(=O)[C@@H]1CCCN1C(=O)c1ccccc1)C(=O)Nc1ccc([N+](=O)[O-])cc1 [Substrate XV, N^α-Bz-Pro-Tyr-Arg-pNA.HCl] (Bz-Pro-Tyr-Arg-pNA) | 73.8 | 71.0
 | N=C(N)NCCC[C@H](NC(=O)[C@@H](NC(=O)[C@@H]1CCCN1C(=O)c1ccccc1)c1ccccc1)C(=O)Nc1ccc([N+](=O)[O-])cc1 [Substrate XVI, N^α-Bz-Pro-Ph.Gly-Arg-pNA.HCl] (Bz-Pro-[Phg]-Arg-pNA) | 16.2 | 9.1
 | N=C(N)NCCC[C@H](NC(=O)[C@H](Cc1ccccc1)NC(=O)[C@@H]1CCCN1C(=O)c1ccccc1)C(=O)Nc1ccc2ccccc2c1 [Substrate XVII, N^α-Bz-Pro-Phe-Arg-2-NA^. HCl] (Bz-Pro-Phe-Arg-βNA) | 95.4 | 44.1
 | COc1cc(NC(=O)[C@H](CCCNC(=N)N)NC(=O)[C@H](Cc2ccccc2)NC(=O)[C@@H]2CCCN2C(=O)c2ccccc2)cc2ccccc12 [Substrate XVIII, N^α-Bz-Pro-Phe-Arg-4-MeO-2-NA^. HCl] | 79.7 | 39.8
split by trypsin with liberation of pNA | N=C(N)NCCC[C@H](NC(=O)OCc1ccccc1)C(=O)Nc1ccc([N+](=O)[O-])cc1 [XIIIa, Cbo-Arg-pNA.HCl] |  | 
 | N^α -4-Aminomethyl-cyclohexylcarbonyl-Pro-Phe-Arg-pNA.2HCl [Substrate IX] | 600.0 | 65.1
 | N^α -Caproyl-Pro-Phe-Arg-pNA.HCl [Substrate IV] | 100.0 | 108.3
